Experimental data as given in patent US20180021234A1, “Oral Care Compositions and Methods of Use” (Colgate-Palmolive Company, priority 2015, published 2018).

Key:
[1] = system: biofilms formed from native saliva on hydroxyapatite (HAP) disks; experiment: Active-attachment biofilm model, colony forming units (live counts); format: cell-based; conditions: for number of CFUs relative to control solutions (water) and variable groups: Example 4; for number of CFUs relative to control solutions (water) and variable groups / Log CFU/ml: solutions; for Log CFU/ml: Example 4 (serine, lysine, with or without zinc)
Experimental: (§1) The active-attachment biofilm model has been previously described by Extercate et al. Caries Research 2010; 44: 372-379, the contents of which are incorporated by reference herein. The biofilm model consists of a metal lid with 24 clamps carrying hydroxyapatite (HAP) disks. The model is inoculated in 24-well plates with native saliva. Biofilms were formed via active recruitment of bacteria onto free-hanging HAP disks.
(§2) Treatment is performed after formation of a 24 h biofilm. Lactic acid production is determined to assess the residual metabolic activity of biofilms after repeated exposure to test products. The assay is conducted using a L-Lactate Assay Kit according to the manufacturer's protocol (Cayman Chemical Company, Cat. No. 700510).
Colony forming units (CFUs) are determined to assess the anti-bacterial efficacy of test solutions after repeated exposure to biofilms. HAP disks are removed from the lid and transferred to 1.5 ml CPW for sonication. CFUs are determined by colony counting. Statistical analysis was performed using Minitab 16 Software. ANOVA and Tukey test were performed on available CFU counts and lactic acid values.
Anti-bacterial efficacy of arginine alone and in combination with zinc in solutions and in toothpastes is tested by live counts using the biofilm model described in Example 1. The approximate number of live counts (CFUs) are as follows: […]

[2] = system: biofilms formed from native saliva on hydroxyapatite (HAP) disks; experiment: Active-attachment biofilm model, lactic acid production (residual metabolic activity); format: cell-based; conditions: for metabolic activity relative to control groups (water) and variable groups: Example 5
Experimental: as §1, §2
The anti-metabolic activity of arginine alone and combined with zinc on bacteria in solutions and in toothpastes is measured by lactic acid production during a 3-hour window after the last treatment. The bacterial metabolic activity, as measured by lactic acid production, decreases in (toothpaste) groups with:
The antibacterial activity of serine and lysine is assessed individually and in combination with zinc and determined by lactic acid production during a 3-hour window after the last treatment according to Example 1.
The anti-metabolic activity of serine and lysine individually, and in combination with zinc, are tested. Using the biofilm model described in Example 1, antibacterial activity of serine and lysine is tested individually and in combination with zinc.

[3] = solution, lactic acid production during a 3-hour window after the last treatment
[4] = solutions, Example 5 (serine, lysine, with or without zinc)

| SMILES | CFU/ml ([1]; solution, live counts, biofilm model of Example 1) [Log CFU/ml] | Lactate [2, 3] [mM] | number of CFUs relative to control solutions (water) and variable groups [1] | Log CFU/ml [1] [Log CFU/ml] | metabolic activity relative to control groups (water) and variable groups ([2]; solutions) | Lactate [2, 4] [mM] |
| --- | --- | --- | --- | --- | --- | --- |
| [O-2].[Zn+2] [0.5% zinc oxide, zinc oxide] | 9.65 | 6.25 |  |  |  |  |
| O=C([O-])CC(O)(CC(=O)[O-])C(=O)[O-].O=C([O-])CC(O)(CC(=O)[O-])C(=O)[O-].[Zn+2].[Zn+2].[Zn+2] [0.25% zinc citrate, zinc citrate] |  | 6.0 |  |  |  |  |
| NCCCC[C@H](N)C(=O)O [4% lysine, lysine] |  |  | do not demonstrate a decrease | 9.37 | do not demonstrate a decrease in metabolic activity | 2.7 |
| N[C@@H](CO)C(=O)O [4% serine, serine] |  |  | do not demonstrate a decrease | 9.45 | do not demonstrate a decrease in metabolic activity | 2.4 |
